Tests used:
Nischarin = Nischarin (Rattus norvegicus, UniProt Q4G017); experiment: Inhibition of Sprague-Dawley rat imidazoline I1 receptor
[1] = Inhibition of Sprague-Dawley rat imidazoline I2 receptor
[2] = target: T1, Adrenergic receptor alpha-2 (Rattus norvegicus, UniProt P22086+P19328+P22909); experiment: Inhibition of Sprague-Dawley rat alpha-2 adrenergic receptor
T1 sequence (P22086 whole entry): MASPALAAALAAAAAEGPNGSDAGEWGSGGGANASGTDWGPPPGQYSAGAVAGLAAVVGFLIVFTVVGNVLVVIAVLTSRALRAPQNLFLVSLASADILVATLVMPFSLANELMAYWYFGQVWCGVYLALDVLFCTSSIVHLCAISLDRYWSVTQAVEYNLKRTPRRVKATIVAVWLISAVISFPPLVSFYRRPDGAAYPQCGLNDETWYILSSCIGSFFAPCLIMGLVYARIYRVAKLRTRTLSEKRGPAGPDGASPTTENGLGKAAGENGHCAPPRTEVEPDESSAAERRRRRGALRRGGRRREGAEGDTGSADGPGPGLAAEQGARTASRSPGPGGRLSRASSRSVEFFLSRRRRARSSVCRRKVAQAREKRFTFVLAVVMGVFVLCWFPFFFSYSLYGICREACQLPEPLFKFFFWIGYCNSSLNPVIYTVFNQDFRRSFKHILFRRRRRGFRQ
T1 sequence (P19328 whole entry): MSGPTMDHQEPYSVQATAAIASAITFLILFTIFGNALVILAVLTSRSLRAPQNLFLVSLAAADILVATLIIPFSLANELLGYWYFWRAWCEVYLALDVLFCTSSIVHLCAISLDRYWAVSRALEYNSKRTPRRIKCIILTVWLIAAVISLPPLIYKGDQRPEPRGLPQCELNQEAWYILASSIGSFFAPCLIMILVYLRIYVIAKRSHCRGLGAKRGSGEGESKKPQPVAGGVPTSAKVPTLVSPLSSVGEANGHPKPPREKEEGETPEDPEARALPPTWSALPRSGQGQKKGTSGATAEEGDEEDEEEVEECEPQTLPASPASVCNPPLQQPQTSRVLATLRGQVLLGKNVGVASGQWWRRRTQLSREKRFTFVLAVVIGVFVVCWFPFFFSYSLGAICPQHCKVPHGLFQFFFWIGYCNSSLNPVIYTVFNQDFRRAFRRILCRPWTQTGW
T1 sequence (P22909 whole entry): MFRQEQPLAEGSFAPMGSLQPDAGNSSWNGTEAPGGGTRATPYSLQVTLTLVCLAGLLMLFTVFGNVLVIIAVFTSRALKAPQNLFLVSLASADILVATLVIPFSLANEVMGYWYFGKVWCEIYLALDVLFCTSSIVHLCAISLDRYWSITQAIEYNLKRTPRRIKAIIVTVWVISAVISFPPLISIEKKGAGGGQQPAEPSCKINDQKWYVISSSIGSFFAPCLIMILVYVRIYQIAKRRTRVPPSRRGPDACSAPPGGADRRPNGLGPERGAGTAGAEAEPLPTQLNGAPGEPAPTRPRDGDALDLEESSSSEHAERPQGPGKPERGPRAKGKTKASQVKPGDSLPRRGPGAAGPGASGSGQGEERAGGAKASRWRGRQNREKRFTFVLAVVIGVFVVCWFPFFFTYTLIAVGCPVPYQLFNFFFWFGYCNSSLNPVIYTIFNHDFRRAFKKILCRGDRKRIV

[3] = Inhibition of Wistar rat imidazoline I2 receptor

Chain of Nischarin (Q4G017 whole entry): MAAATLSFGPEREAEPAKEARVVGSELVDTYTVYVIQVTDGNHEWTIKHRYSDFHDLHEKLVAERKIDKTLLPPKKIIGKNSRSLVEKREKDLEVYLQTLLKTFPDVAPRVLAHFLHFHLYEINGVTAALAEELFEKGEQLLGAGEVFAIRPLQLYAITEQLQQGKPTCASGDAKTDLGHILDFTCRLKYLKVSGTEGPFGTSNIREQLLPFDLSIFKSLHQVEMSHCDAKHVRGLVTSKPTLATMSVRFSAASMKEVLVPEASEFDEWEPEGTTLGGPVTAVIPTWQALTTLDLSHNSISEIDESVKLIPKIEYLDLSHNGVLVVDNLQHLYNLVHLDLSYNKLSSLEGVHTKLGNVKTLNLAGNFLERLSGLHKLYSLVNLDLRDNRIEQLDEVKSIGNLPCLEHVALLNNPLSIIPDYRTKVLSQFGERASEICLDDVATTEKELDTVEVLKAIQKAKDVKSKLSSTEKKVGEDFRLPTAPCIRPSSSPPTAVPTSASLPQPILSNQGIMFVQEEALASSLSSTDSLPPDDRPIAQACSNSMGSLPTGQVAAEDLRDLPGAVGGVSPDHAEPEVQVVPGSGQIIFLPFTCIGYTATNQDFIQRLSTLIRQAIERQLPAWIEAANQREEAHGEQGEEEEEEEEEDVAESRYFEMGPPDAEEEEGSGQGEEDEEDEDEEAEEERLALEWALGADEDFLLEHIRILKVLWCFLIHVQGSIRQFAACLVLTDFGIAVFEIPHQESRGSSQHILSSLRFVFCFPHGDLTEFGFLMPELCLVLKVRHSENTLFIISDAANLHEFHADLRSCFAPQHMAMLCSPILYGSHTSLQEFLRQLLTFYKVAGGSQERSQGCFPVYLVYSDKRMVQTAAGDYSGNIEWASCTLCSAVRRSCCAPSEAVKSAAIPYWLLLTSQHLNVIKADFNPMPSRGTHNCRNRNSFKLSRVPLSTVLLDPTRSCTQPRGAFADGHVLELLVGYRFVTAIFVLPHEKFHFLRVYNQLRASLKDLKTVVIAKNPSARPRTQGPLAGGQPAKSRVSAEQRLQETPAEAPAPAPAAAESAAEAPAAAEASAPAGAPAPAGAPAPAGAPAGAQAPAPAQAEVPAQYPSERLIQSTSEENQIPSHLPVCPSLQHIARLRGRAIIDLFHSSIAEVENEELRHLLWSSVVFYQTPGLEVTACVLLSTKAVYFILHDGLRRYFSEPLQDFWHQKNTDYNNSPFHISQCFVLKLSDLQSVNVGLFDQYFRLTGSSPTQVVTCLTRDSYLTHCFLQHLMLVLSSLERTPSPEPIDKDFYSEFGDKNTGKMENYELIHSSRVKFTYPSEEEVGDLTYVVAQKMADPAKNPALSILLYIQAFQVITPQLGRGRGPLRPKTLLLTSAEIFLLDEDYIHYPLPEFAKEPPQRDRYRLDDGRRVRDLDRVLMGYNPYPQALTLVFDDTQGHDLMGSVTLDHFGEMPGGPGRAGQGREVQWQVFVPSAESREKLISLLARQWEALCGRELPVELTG

Row | SMILES | IC50 (Nischarin) | Ki [1] | Ki [2] | Ki [3]
1 | Br.NCC[C@H]1CNC(Nc2cccnc2)=N1 | > 1000 µM | > 1000 µM | 19.66 µM | –
2 | Br.NCC[C@H]1CNC(NCc2ccccc2)=N1 | 101 µM | 7.5 µM | 5.539 µM | –
3 | Br.NCC[C@H]1CNC(Nc2ccc(Cl)cc2Cl)=N1 | 1.48 µM | 1.76 µM | 0.854 µM | –
4 | Br.Cc1cccc(NC2=N[C@H](CCN)CN2)n1 | 8.51 µM | 39.6 µM | 4.907 µM | –
5 | Br.NCC[C@H]1CNC(Nc2ccccc2Br)=N1 | 3.7 µM | 18.8 µM | 1.553 µM | –
6 | Br.NCC[C@H]1CNC(Nc2c(F)cccc2F)=N1 | 93.1 µM | 21.8 µM | 13.06 µM | –
7 | Br.NCC[C@H]1CNC(Nc2ccc(Br)cc2)=N1 | 59.4 µM | 81.2 µM | 25.8 µM | –
8 | Br.COc1ccc(NC2=N[C@@H](CCN)CN2)cc1 | 79.8 µM | 24.9 µM | 9.376 µM | –
9 | Br.NCC[C@H]1CNC(Nc2cccc(Cl)c2)=N1 | 33.9 µM | 20.3 µM | 7.018 µM | –
10 | Br.Cc1cccc(NC2=N[C@@H](CCN)CN2)n1 | 7.78 µM | 15.7 µM | 0.445 µM | –
11 | Br.NCC[C@@H]1CNC(Nc2ccc(Cl)cc2Cl)=N1 | 6.33 µM | 92.5 µM | 16.92 µM | –
12 | Br.NCC[C@H]1CNC(Nc2cccc(C(F)(F)F)c2)=N1 | 1.31 µM | 12.7 µM | 3.007 µM | –
13 | Br.NCC[C@@H]1CNC(Nc2cccc(C(F)(F)F)c2)=N1 | 1.25 µM | 47.7 µM | 26.69 µM | –
14 | Br.NCC[C@H]1CNC(Nc2c(Cl)cccc2Cl)=N1 | 7.75 µM | 2.43 µM | 1.899 µM | –
15 | Br.NCC[C@@H]1CNC(Nc2c(Cl)cccc2Cl)=N1 | 2.72 µM | 9.56 µM | 4.315 µM | –
16 | Br.NCC[C@H]1CNC(Cc2ccccc2)=N1 | 278 µM | 59.4 µM | 23.32 µM | –
17 | Br.NCC[C@H]1CNC(Cc2cccc3ccccc23)=N1 | > 100 µM | 1 µM | 0.964 µM | –
18 | Br.NCC[C@@H]1CNC(Cc2cccc3ccccc23)=N1 | 583 µM | 46.3 µM | 83.77 µM | –
19 | Br.CCC1(C2=N[C@@H](CCN)CN2)Cc2ccccc2O1 (stereo partly drawn) | 1.01 µM | 2.55 µM | 20.35 µM | –
20 | Br.CCC1(C2=N[C@H](CCN)CN2)Cc2ccccc2O1 (stereo partly drawn) | 32.5 µM | 18.9 µM | 0.869 µM | –
21 | Br.NCC[C@H]1CNC(C2COc3ccccc3O2)=N1 (stereo partly drawn) | 5.11 µM | 8.12 µM | 24.02 µM | –
22 | Br.NCC[C@@H]1CNC(C2COc3ccccc3O2)=N1 (stereo partly drawn) | 2.65 µM | 9.61 µM | 5.412 µM | –
23 | Br.NCC[C@H]1CNC(CN(Cc2ccccc2)c2ccccc2)=N1 | 11.6 µM | 19.1 µM | 481.8 µM | –
24 | Br.NCC[C@H]1CNC(c2ccccc2)=N1 | 72.9 µM | 3.56 µM | 43.07 µM | –
25 | Br.NCC[C@H]1CNC(c2ccccc2F)=N1 | 117 µM | 27.6 µM | 178.6 µM | –
26 | Br.NCC[C@H]1CNC(/C=C/c2ccccc2)=N1 | 17.2 µM | 11.2 µM | 3.896 µM | –
27 | Cl.Cl.NCC[C@H]1CNC(NC(C2CC2)C2CC2)=N1 | > 100 µM | 28 µM | 5.727 µM | –
28 | NCCCCN=C(N)N [AGMATINE] | – | – | – | 417 µM
29 | Clc1cccc(Cl)c1NC1=NCCN1 [CLONIDINE] | – | 0.364 µM | – | –

From ChEMBL document CHEMBL1641382, “New imidazoline/α(2)-adrenoceptors affecting compounds-4(5)-(2-aminoethyl)imidazoline (dihydrohistamine) derivatives. Synthesis and receptor affinity studies” (Bioorg Med Chem, 2011)
